“Also recorded” adds a separate entry of the source. Each block holds one compound with its values, some of them ahead of it.
Key:
[1] = system: brush border membranes from NPC1L1 knockout (−/−) mice; assay: Binding assay with brush border membranes from NPC1L1 deficient mice; design: species or system mouse
Procedure: Brush border membranes vesicles were prepared from intestinal tissues of wild type and NPC1L1 knockout (−/−) mice. 15, 30 and 60 μg protein/assay of brush border membranes vesicles were incubated with 4 nM ^35S-2 in buffer A for 3 hours at 37° C. in the presence and absence of 100 μM EZE-glucuronide.
For FIG. 14A, enterocyte brush border membranes were prepared from NPC1L1 deficient male mice and same sex wild-type littermates, and tested for binding of 1. […] Membranes from wild type mice are on the left and from NPC1L1 deficient mice on the right.

[2] = system: intestinal cholesterol absorption; assay: Cholesterol absorption in mice, dual fecal isotope ratio method; assay type: in vivo, mouse
Procedure: Cholesterol absorption in the mice was determined by the dual fecal isotope ratio method as described by Altmann et al. (Biochim. Biophys. Acta. 1580(1): 77-93 (2002)). Mice (n—4-6/group) were fed a standard rodent chow diet and in some groups treated daily with a maximally effective dose of ezetimibe (10 mg/kg). Mice were gavaged with ^14C-cholesterol (1 μCi, 0.1 mg unlabeled cholesterol) and ^3H-sitostanol (2 μCi) in 0.1 ml corn oil. Feces were collected for 2 days and fecal ^14C-cholesterol and ^3H-sitostanol levels were determined by combustion in a Packard Oxidizer. The fraction of cholesterol absorbed, as evaluated by the fecal dual isotope technique, was similar in wild type (+/+) and heterozygous mice (+/−) fed a chow diet (heterozygous mice absorbed 46±5% and age matched wild type mice absorbed 51±3% of the dose of ^14C-cholesterol). The NPC1L1 knockout mice (−/−) absorbed 15.6±0.4% of the ^14C-cholesterol, which was similar to the wild type mice treated with a maximally effective dose of ezetimibe (16.1±0.3%), and reduced by 69% compared to wild type mice (p<0.001). In NPC1L1 knockout treated with ezetimibe at 10 mg/kg/day, cholesterol absorption was similar to that seen in the untreated knockout mice (16.2±0.6% compared to 15.6%±0.4%, respectively). […]

[3] = system: human, mouse or rat NPC1L1-CHO overexpressing membranes; assay: SPA assay; assay type: binding; conditions: 0.1 nM ligand
Procedure: For each well of a 96 well plate, a reaction mixture of 10 μg human, mouse or rat NPC1L1-CHO overexpressing membranes (Biosignal) and 200 μg/well YSi-WGA-SPA beads (Amersham) in 100 μl is prepared in NPC1L1 assay buffer (25 mM HEPES, pH 7.8, 2 mM CaCl2, 1 mM MgCl2, 125 mM NaCl, 0.1% BSA). A 0.4 nM stock of ligand-[^125I]-ezetimibe- is prepared in the NPC1L1 assay buffer. The above solutions are added to a 96-well assay plate as follows: 50 μl NPC1L1 assay buffer, 100 μl of reaction mixture, 50 μl of ligand stock (final ligand concentration is 0.1 nM). The assay plates are shaken for 5 minutes on a plate shaker, then incubated for 8 hours before cpm/well are determined in Microbeta Trilux counter (PerkinElmer).

Compound: O=C(O)[C@H]1O[C@@H](Oc2ccc([C@@H]3[C@@H](CC[C@H](O)c4ccc(F)cc4)C(=O)N3c3ccc(F)cc3)cc2)[C@H](O)[C@@H](O)[C@@H]1O [Compound 1, Ezetimibe glucuronide]
specific binding to membranes from NPC1L1 deficient mice ([1]; 500 nM 1, 0.03% taurocholate, 0.05% digitonin): no detectable specific binding affinity; also recorded: virtually undetectable

Compound: O=C1[C@H](CC[C@H](O)c2ccc(F)cc2)[C@@H](c2ccc(O)cc2)N1c1ccc(F)cc1 [ezetimibe]
fraction of ^14C-cholesterol absorbed ([2]; NPC1L1 knockout mice, ezetimibe 10 mg/kg/day): 16.2±0.6% | fraction of ^14C-cholesterol absorbed ([2]; wild type mice, ezetimibe 10 mg/kg daily): 16.1±0.3% | binding to cell membranes expressing human, mouse or rat NPC1L1 [3]: binds

binding to membranes from NPC1L1 deficient mice ([1]; 4 nM ^35S-2): no detectable binding
Compound: CS(=O)(=O)NCC#Cc1ccc(N2C(=O)[C@H](CC[C@H](O)c3ccc(F)cc3)[C@H]2c2ccc(O[C@@H]3O[C@H](C(=O)O)[C@@H](O)[C@H](O)[C@H]3O)cc2)cc1 [Compound 2, 4-[(2S,3R)-3-[(3S)-3 (4-fluorophenyl)-3-hydroxypropyl]-1-(4-{3-[(methylsulfonyl)amino]prop-1-yn-1-yl}phenyl)-4-oxoazetidin-2-yl]phenyl β-D-glucopyranosiduronic acid]
